Reference: patent US8513260B2, “Pyrazinylpyrazoles” (Bayer CropScience AG, priority 2009, dated 2013)

Tested on: not listed separately
Test: logP by HPLC on reversed-phase columns (C 18), EEC Directive 79/831 Annex V.A8
Assay type: physicochemical
Conditions: * LC-MS, acidic range pH 2.7, 0.1% aqueous formic acid and acetonitrile
Description: [table] The calibration is effected with unbranched alkan-2-ones (having 3 to 16 carbon atoms) with known logP values (logP values determined on the basis of the retention times by linear interpolation between two successive alkanones).

SMILES | log P
CSc1nccnc1-n1nc(C(F)(F)F)c(-c2cc(Cl)cc(C(F)(F)F)c2)c1N [Ex. 28] | 4.9*

Same assay, conditions: reversed-phase C18 HPLC column, pH 2.7, * LC-MS, acidic range pH 2.7, 0.1% aqueous formic acid and acetonitrile; read-out: log P

SMILES | chromatographic logP
COc1nccnc1-n1nc(C(F)(F)F)c(-c2cc(Br)c3c(c2)OCO3)c1N [Ex. 74] | 3.18
COc1nccnc1-n1nc(C(C)C)c(-c2cc(Cl)c3c(c2)OCO3)c1N [Ex. 77] | 2.96
COc1nccnc1-n1nc(C(F)(F)F)c(-c2cc(C#N)c3c(c2)OCO3)c1N [Ex. 150] | 2.66
COc1nccnc1-n1nc(C(F)(F)Cl)c(-c2cc(Cl)c3c(c2)OCO3)c1N [Ex. 169] | 3.26
CCOc1nccnc1-n1nc(CC)c(-c2cc(Cl)c3c(c2)OCO3)c1N [Ex. 170] | 2.96
CCOc1nccnc1-n1nc(C(F)(F)F)c(-c2cc(Cl)c3c(c2)OCO3)c1N [Ex. 171] | 3.48
CCOc1nccnc1-n1nc(C(F)(F)F)c(-c2cc(C#N)c3c(c2)OCO3)c1N [Ex. 172] | 3.01
COc1nccnc1-n1nc(C(F)(F)F)c(-c2cc(F)c3c(c2)OCO3)c1N [Ex. 174] | 2.91
CCOc1nccnc1-n1nc(C(F)(F)F)c(-c2cc(F)c3c(c2)OCO3)c1N [Ex. 175] | 3.27

Tested on: Boophilus microplus
Test: Boophilus microplus test (BOOPMI injection)
Assay type: in vivo
Conditions: 20 μg animal; injection into the abdomen; after 7 days, laying of fertile eggs
Description: Boophilus microplus Test (BOOPMI Injection) Solvent: dimethyl sulphoxide To prepare an appropriate active ingredient formulation, 10 mg of active ingredient are mixed with 0.5 ml of solvent and the concentrate is diluted with solvent to the desired concentration. The active ingredient solution is injected into the abdomen (Boophilus microplus), and the animals are transferred into dishes and stored in a climate-controlled room. The efficacy is assessed by laying of fertile eggs. After 7 days, the efficacy in % is determined. 100% means that none of the ticks has laid any fertile eggs.

SMILES | efficacy [%]
COc1nccnc1-n1nc(C(F)(F)F)c(-c2cc(Cl)cc(Cl)c2)c1N [Ex. 6] | 100
C=Cc1nn(-c2nccnc2OC)c(N)c1-c1cc(Cl)cc(C(F)(F)F)c1 [Ex. 9] | 100
COc1nccnc1-n1nc(C(F)(F)F)c(-c2cc(Cl)cc(C(F)(F)F)c2)c1N [Ex. 10] | 100
CSc1nccnc1-n1nc(C(F)(F)F)c(-c2cc(Cl)cc(C(F)(F)F)c2)c1N [Ex. 28] | 100

Tested on: unfed adult fleas (Ctenocephalides felis)
Test: Ctenocephalides felis test (CTECFE)
Assay type: in vivo
Conditions: 100 ppm in citrated cow's blood; after 2 days
Description: Ctenocephalides felis Test ([…]) Solvent: 1 part by weight of dimethyl sulphoxide For the purpose of preparing an appropriate active ingredient formulation, 10 mg of active ingredient are mixed with 0.5 ml of dimethyl sulphoxide. A portion of the concentrate is diluted with citrated cow's blood and the desired concentration is established. About 20 unfed adult fleas (Ctenocephalides felis) are introduced into a chamber closed at the top and bottom with gauze. A metal cylinder, the bottom of which is closed with Parafilm, is placed onto the chamber. The cylinder contains the blood/active ingredient preparation, which can be imbibed by the fleas through the Parafilm membrane. After 2 days, the kill in % is determined. 100% means that all fleas have been killed; 0% means that none of the fleas have been killed.

SMILES | efficacy (kill) [%]
COc1nccnc1-n1nc(C(F)(F)F)c(-c2cc(Cl)cc(Cl)c2)c1N [Ex. 6] | 90
COc1nccnc1-n1nc(C(F)(F)F)c(-c2cc(Cl)cc(C(F)(F)F)c2)c1N [Ex. 10] | 90

Tested on: adult Musca domestica
Test: Musca domestica test
Assay type: in vivo
Conditions: 100 ppm; after 2 days
Description: Musca domestica Test Solvent: dimethyl sulphoxide To prepare an appropriate active ingredient formulation, 10 mg of active ingredient are mixed with 0.5 ml of dimethyl sulphoxide and the concentrate is diluted with water to the desired concentration. Vessels containing a sponge treated with the active ingredient preparation of the desired concentration are populated with adult Musca domestica. After 2 days, the kill in % is determined. 100% means that all of the flies have been killed; 0% means that none of the flies have been killed.

SMILES | efficacy (kill) [%]
COc1nccnc1-n1nc(C(F)(F)F)c(-c2cc(Cl)cc(Cl)c2)c1N [Ex. 6] | 80
COc1nccnc1-n1nc(C(F)(F)F)c(-c2cc(Cl)cc(C(F)(F)F)c2)c1N [Ex. 10] | 100

Tested on: green peach aphid (Myzus persicae)
Test: Myzus test (MYZUPE spray treatment)
Assay type: in vivo
Conditions: 500 g/ha, Chinese cabbage discs, after 6 days
Description: Myzus Test (MYZUPE Spray Treatment) Solvent: 78 parts by weight of acetone • • 1.5 parts by weight of dimethylformamide Emulsifier: 0.5 part by weight of alkylaryl polyglycol ether To prepare an appropriate active ingredient preparation, 1 part by weight of active ingredient is mixed with the stated amounts of solvent and emulsifier, and the concentrate is diluted with emulsifier-containing water to the desired concentration. Discs of Chinese cabbage (Brassica pekinensis) infested by all stages of the green peach aphid (Myzus persicae) are sprayed with an active ingredient preparation of the desired concentration. After 6 days, the efficacy in % is determined. 100% means that all of the aphids have been destroyed; 0% means that none of the aphids have been destroyed.

SMILES | efficacy [%]
C=Cc1nn(-c2nccnc2OC)c(N)c1-c1cc(Cl)cc(C(F)(F)F)c1 [Ex. 9] | 100

Same assay, conditions: Myzus persicae, 144 h, Chinese cabbage discs, after 6 days, read-out: efficacy

SMILES | pest or weed control at 500 g/ha [%]
COc1nccnc1-n1nc(C(F)(F)F)c(-c2cc(Br)c3c(c2)OCO3)c1N [Ex. 74] | 90
COc1nccnc1-n1nc(C(C)C)c(-c2cc(Cl)c3c(c2)OCO3)c1N [Ex. 77] | 100
COc1nccnc1-n1nc(C(F)(F)F)c(-c2cc(C#N)c3c(c2)OCO3)c1N [Ex. 150] | 100
COc1nccnc1-n1nc(C(F)(F)Cl)c(-c2cc(Cl)c3c(c2)OCO3)c1N [Ex. 169] | 100
CCOc1nccnc1-n1nc(CC)c(-c2cc(Cl)c3c(c2)OCO3)c1N [Ex. 170] | 100
CCOc1nccnc1-n1nc(C(F)(F)F)c(-c2cc(Cl)c3c(c2)OCO3)c1N [Ex. 171] | 100
CCOc1nccnc1-n1nc(C(F)(F)F)c(-c2cc(C#N)c3c(c2)OCO3)c1N [Ex. 172] | 100
COc1nccnc1-n1nc(C(F)(F)F)c(-c2cc(F)c3c(c2)OCO3)c1N [Ex. 174] | 100
CCOc1nccnc1-n1nc(C(F)(F)F)c(-c2cc(F)c3c(c2)OCO3)c1N [Ex. 175] | 100

Tested on: larvae of the mustard beetle (Phaedon cochleariae)
Test: Phaedon test (PHAECO spray treatment)
Assay type: in vivo
Conditions: 500 g/ha, Chinese cabbage discs, after 7 days
Description: Phaedon Test ([…] Spray Treatment) Solvent: 78.0 parts by weight of acetone • • 1.5 parts by weight of dimethylformamide Emulsifier: 0.5 part by weight of alkylaryl polyglycol ether To prepare an appropriate active ingredient preparation, 1 part by weight of active ingredient is mixed with the stated amounts of solvent and emulsifier, and the concentrate is diluted with emulsifier-containing water to the desired concentration. Discs of Chinese cabbage (Brassica pekinensis) are sprayed with an active ingredient preparation of the desired concentration and, after drying, populated with larvae of the mustard beetle (Phaedon cochleariae). After 7 days, the efficacy in % is determined. 100% means that all beetle larvae have been killed; 0% means that none of the beetle larvae have been killed.

SMILES | efficacy [%]
COc1nccnc1-n1nc(C(F)(F)F)c(-c2cc(Cl)cc(Cl)c2)c1N [Ex. 6] | 100
C=Cc1nn(-c2nccnc2OC)c(N)c1-c1cc(Cl)cc(C(F)(F)F)c1 [Ex. 9] | 100
CSc1nccnc1-n1nc(C(F)(F)F)c(-c2cc(Cl)cc(C(F)(F)F)c2)c1N [Ex. 28] | 100

Same assay, conditions: Phaedon cochleariae, 168 h, Chinese cabbage discs, after 7 days, read-out: efficacy

SMILES | pest or weed control at 500 g/ha [%]
COc1nccnc1-n1nc(C(F)(F)F)c(-c2cc(Br)c3c(c2)OCO3)c1N [Ex. 74] | 100
COc1nccnc1-n1nc(C(C)C)c(-c2cc(Cl)c3c(c2)OCO3)c1N [Ex. 77] | 100
COc1nccnc1-n1nc(C(F)(F)F)c(-c2cc(C#N)c3c(c2)OCO3)c1N [Ex. 150] | 100
COc1nccnc1-n1nc(C(F)(F)Cl)c(-c2cc(Cl)c3c(c2)OCO3)c1N [Ex. 169] | 100
CCOc1nccnc1-n1nc(CC)c(-c2cc(Cl)c3c(c2)OCO3)c1N [Ex. 170] | 100
CCOc1nccnc1-n1nc(C(F)(F)F)c(-c2cc(Cl)c3c(c2)OCO3)c1N [Ex. 171] | 100
CCOc1nccnc1-n1nc(C(F)(F)F)c(-c2cc(C#N)c3c(c2)OCO3)c1N [Ex. 172] | 100
COc1nccnc1-n1nc(C(F)(F)F)c(-c2cc(F)c3c(c2)OCO3)c1N [Ex. 174] | 100
CCOc1nccnc1-n1nc(C(F)(F)F)c(-c2cc(F)c3c(c2)OCO3)c1N [Ex. 175] | 100

Tested on: caterpillars of the armyworm (Spodoptera frugiperda)
Test: Spodoptera frugiperda test (SPODFR spray treatment)
Assay type: in vivo
Conditions: 500 g/ha, maize leaf discs, after 7 days
Description: Spodoptera frugiperda Test (SPODFR Spray Treatment) Solvent: 78.0 parts by weight of acetone • • 1.5 parts by weight of dimethylformamide Emulsifier: 0.5 part by weight of alkylaryl polyglycol ether To prepare an appropriate active ingredient preparation, 1 part by weight of active ingredient is mixed with the stated amounts of solvent and emulsifier, and the concentrate is diluted with emulsifier-containing water to the desired concentration. Discs of maize leaves (Zea mays) are sprayed with an active ingredient preparation of the desired concentration and, after drying, populated with caterpillars of the armyworm (Spodoptera frugiperda). After 7 days, the efficacy in % is determined. 100% means that all caterpillars have been killed; 0% means that none of the caterpillars have been killed.

SMILES | efficacy [%]
COc1nccnc1-n1nc(C(F)(F)F)c(-c2cc(Cl)cc(Cl)c2)c1N [Ex. 6] | 83
C=Cc1nn(-c2nccnc2OC)c(N)c1-c1cc(Cl)cc(C(F)(F)F)c1 [Ex. 9] | 100
CSc1nccnc1-n1nc(C(F)(F)F)c(-c2cc(Cl)cc(C(F)(F)F)c2)c1N [Ex. 28] | 100

Same assay, conditions: Spodoptera frugiperda, foliar, 168 h, maize leaf discs, after 7 days, read-out: efficacy

SMILES | pest or weed control at 500 g/ha [%]
COc1nccnc1-n1nc(C(F)(F)F)c(-c2cc(Br)c3c(c2)OCO3)c1N [Ex. 74] | 100
COc1nccnc1-n1nc(C(C)C)c(-c2cc(Cl)c3c(c2)OCO3)c1N [Ex. 77] | 100
COc1nccnc1-n1nc(C(F)(F)F)c(-c2cc(C#N)c3c(c2)OCO3)c1N [Ex. 150] | 100
COc1nccnc1-n1nc(C(F)(F)Cl)c(-c2cc(Cl)c3c(c2)OCO3)c1N [Ex. 169] | 100
CCOc1nccnc1-n1nc(CC)c(-c2cc(Cl)c3c(c2)OCO3)c1N [Ex. 170] | 100
CCOc1nccnc1-n1nc(C(F)(F)F)c(-c2cc(Cl)c3c(c2)OCO3)c1N [Ex. 171] | 100
CCOc1nccnc1-n1nc(C(F)(F)F)c(-c2cc(C#N)c3c(c2)OCO3)c1N [Ex. 172] | 100
COc1nccnc1-n1nc(C(F)(F)F)c(-c2cc(F)c3c(c2)OCO3)c1N [Ex. 174] | 100
CCOc1nccnc1-n1nc(C(F)(F)F)c(-c2cc(F)c3c(c2)OCO3)c1N [Ex. 175] | 100

Tested on: red spider mite (Tetranychus urticae)
Test: Tetranychus test, OP-resistant (TETRUR spray treatment)
Assay type: in vivo
Conditions: 500 g/ha, bean leaf discs, after 6 days
Description: Tetranychus Test, OP-Resistant (TETRUR Spray Treatment)
Solvent: 78.0 parts by weight of acetone • • 1.5 parts by weight of dimethylformamide
Emulsifier: 0.5 part by weight of alkylaryl polyglycol ether
To prepare an appropriate active ingredient preparation, 1 part by weight of active ingredient is mixed with the stated amounts of solvent and emulsifier, and the concentrate is diluted with emulsifier-containing water to the desired concentration. Discs of bean leaves (Phaseolus vulgaris) infested by all stages of the red spider mite (Tetranychus urticae) are sprayed with an active ingredient preparation of the desired concentration. After 6 days, the efficacy in % is determined. 100% means that all spider mites have been killed; 0% means that none of the spider mites have been killed.

SMILES | efficacy [%]
C=Cc1nn(-c2nccnc2OC)c(N)c1-c1cc(Cl)cc(C(F)(F)F)c1 [Ex. 9] | 100

Same assay, conditions: Tetranychus urticae, foliar, 144 h, 500 g/ha, bean leaf discs, after 6 days, read-out: efficacy

SMILES | pest or weed control at 500 g/ha [%]
COc1nccnc1-n1nc(C(F)(F)F)c(-c2cc(Br)c3c(c2)OCO3)c1N [Ex. 74] | 90
COc1nccnc1-n1nc(C(C)C)c(-c2cc(Cl)c3c(c2)OCO3)c1N [Ex. 77] | 100
COc1nccnc1-n1nc(C(F)(F)F)c(-c2cc(C#N)c3c(c2)OCO3)c1N [Ex. 150] | 100
COc1nccnc1-n1nc(C(F)(F)Cl)c(-c2cc(Cl)c3c(c2)OCO3)c1N [Ex. 169] | 100
CCOc1nccnc1-n1nc(CC)c(-c2cc(Cl)c3c(c2)OCO3)c1N [Ex. 170] | 100
CCOc1nccnc1-n1nc(C(F)(F)F)c(-c2cc(Cl)c3c(c2)OCO3)c1N [Ex. 171] | 100
CCOc1nccnc1-n1nc(C(F)(F)F)c(-c2cc(C#N)c3c(c2)OCO3)c1N [Ex. 172] | 100
COc1nccnc1-n1nc(C(F)(F)F)c(-c2cc(F)c3c(c2)OCO3)c1N [Ex. 174] | 100
CCOc1nccnc1-n1nc(C(F)(F)F)c(-c2cc(F)c3c(c2)OCO3)c1N [Ex. 175] | 100
